Results: patent publication US9561228B2 (Celgene Avilomics Research, Inc., priority 2013, dated 2017)
Read-outs that look alike come from different tables or passages of the source.

Experiments:
[1] = molecular target: T1, Erk1 (Homo sapiens, UniProt P27361); assay: Protein Mass Modification Assay (intact protein MALDI, 60 min, 10-fold excess of compound); type: binding
T1 construct: purchased Millipore 14-439
Method: Protein Mass Modification Assay
Intact protein: Erk1 from Millipore (Cat. No. 14-439) was incubated for 60 min. at room temperature with a 10-fold excess of test compound to protein. 4 μL aliquots of the resulting mixture were diluted with 15 μL of 0.2% TFA prior to micro C4 ZipTipping directly onto the MALDI target using sinapinic acid as the desorption matrix (10 mg/ml in 0.1% TFA:Acetonitrile 50:50, v/v). The centroid mass of the target protein in the control sample was compared with the centroid mass of the target protein incubated with compound. A shift in the centroid mass of the treated protein compared to the untreated protein was divided by the molecular weight of the compound. This number corresponds to the percentage of modified protein after one hour incubation. Results from this assay are reported in Table A under the column “ERK1 Mass Mod (%).”

[2] = molecular target: T2, MEK1 activated ERK1 (Homo sapiens, UniProt P27361); assay: Omnia continuous-read kinase assay for potency against MEK1 activated ERK1; type: biochemical
T2 construct: purchased Millipore (Billerica, Mass.) 14-439-K
In short: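 Apparent IC50 came from initial reaction slopes (RFU vs time) plotted against log inhibitor with a variable-slope fit. Reactions were started with ERK1 (4 nM final) added to 50 μM ATP, roughly at its appKM, and 10 μM Sox-conjugated ST17 peptide in 20 mM Tris pH 7.5, 5 mM MgCl2. Fluorescence was monitored every 71 seconds.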

[3] = system: ERK1/2 phosphorylation of p90RSK in HT29 cells; assay: pRSK MSD Assay in HT29 cells; type: cell-based; conditions: Homo sapiens, HT-29, read-out: ERK1/ERK2 PRSK MSD HT29 EC50
In short: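 Phospho-RSK level, read by electrochemiluminescence on RSK-antibody-coated MSD plates with a phospho-RSK/Sulfo-tag detection pair, reports cellular ERK1/2 activity. HT29 cells, kept overnight in 0.1% FBS medium, were exposed to compound for 120 min at 37° C before lysis.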

[4] = system: HT-29 cells (colorectal adenocarcinoma); assay: Inhibition of cancer cell proliferation, HT-29 (CellTiterGlo, 72 hours); type: cell-based; conditions: Homo sapiens
In short: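 Proliferation over 72 h at 37° C was read by CellTiterGlo luminescence, translated to cell counts with a cell-density standard curve (390–50,000 cells). Compound added as 3-fold dilutions from a 5,000 nM two-fold stock to 3000 seeded HT-29 cells; GI50 from percent inhibition relative to untreated wells.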

[5] = system: ERK1/2 phosphorylation of p90RSK in A375 cells; assay: Detection of total and phosphor-RSK by MSD ELISA (A375); type: cell-based; conditions: Homo sapiens, A-375, read-out: ERK1/ERK2 PRSK A375 EC50
Method: Detection of Total and Phosphor-RSK by MSD ELISA (A375)
The protocol below describes an assay to measure the kinase activity of ERK1/2 to phosphorylate a substrate, p90RSK, in the presence or absence of a test compound.
A375 cells were grown in DMEM/10% FBS. Twenty four hours prior to the assay, 50,000 cells per well were plated in a 96 well flat bottom plate. Once cells attached to the plate, the medium was replaced with 100 ul of DMEM/0.1% FBS. Cells were cultured overnight in an incubator at 37° C.
Compound stock solutions of 10 mM in DMSO were prepared. 1000× dilutions were then prepared in DMSO. 1 uL of DMSO solution was then transferred to 1 ml DMEM/0.1% FBS in a deep well plate. Cell plate media was discarded, followed by addition of 100 uL of the compound-containing media. The preparation was incubated at 37° C. for 2 hrs.
Cell lysates were prepared as described below.
pRSK or Total RSK MSD Assay
MSD plates: Blank MSD plates were coated with 30 uL capture antibody (BD 610226) at a final concentration of 1 ug/mL in PBS. Both pRSK and total RSK MSD assays used the same capture antibody at the same concentration. Antibody stock concentration was 250 ug/mL. Once antibody solution was added to the MSD plate, the sides were tapped to be certain it was coated completely (visual inspection). It was then covered and placed at 4° C. overnight on a level surface.
Block MSD Plate: The coating antibody was removed and the plate was washed on a plate washer in MSD wash buffer. The last bit of wash solution was tapped out and 150 uL/well of 3% BSA in MSD wash buffer was added in. The preparation was placed on a shaker at room temperature for at least an hour.
Add samples: Media was removed from compound-treated cells and replaced with 55 uL/well MSD cell lysis buffer containing protease and phosphotase I & II inhibitors. The preparation was incubated on a shaker in a cold room for 30-45 min. The blocked MSD plate was washed a on plate washer, tapping out the last bit of wash solution, followed by addition of 50 uL (of the 55 ul) cell lysate in a well-well transfer. The preparation was covered and incubated on a shaker at room temp for 2 hours. The lysate was removed, washed on a plate washer 3 times, and the last bit of wash buffer was tapped out and replace with 25 uL/well detection antibody (described below).
For pRSK detection, a pRSK antibody stock of 21 ug/mL was prepared as follows: 1 ug/mL pRSK Ser380 antibody (Cell Signaling Technology, Cat. #9335)+1:750 anti-rabbit SulfoTag (Mesoscale Discovery, Cat. # R32AB-1) in 1% BSA in MSD wash buffer.
For total RSK detection, a total RSK antibody stock of 200 ug/mL was prepared as follows: 1 ug/mL total RSK (Santa Cruz sc-231G) antibody+1:750 anti-goat SulfoTag (from MSD, R32AG-1) in 1% BSA in MSD wash buffer.
The plate was incubated for 1 hr at room temperature on a shaker, followed by three washings. The last bit of wash buffer was tapped out. 150 uL/well 1×MSD Read buffer was added and the plate was then analyzed.

[6] = MEK1 activated ERK1, ATP at KM, read-out: ERK1 Omnia WT ATP KM IC50

T2 sequence (P27361 whole entry): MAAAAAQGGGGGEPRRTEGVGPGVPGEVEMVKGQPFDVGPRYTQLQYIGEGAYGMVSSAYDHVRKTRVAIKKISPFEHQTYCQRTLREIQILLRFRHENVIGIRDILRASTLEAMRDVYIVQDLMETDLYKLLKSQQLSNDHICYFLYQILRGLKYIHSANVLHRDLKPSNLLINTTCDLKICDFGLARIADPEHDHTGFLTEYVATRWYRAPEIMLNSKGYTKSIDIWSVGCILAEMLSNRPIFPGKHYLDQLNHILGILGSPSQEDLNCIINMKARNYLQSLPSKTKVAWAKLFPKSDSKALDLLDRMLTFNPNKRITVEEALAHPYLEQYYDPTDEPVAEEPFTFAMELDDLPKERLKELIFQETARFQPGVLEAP
T1 sequence (P27361 whole entry): as above

Structure (SMILES)	GI50 [4] [nM]	IC50 ([2]; ATP at KM, WT) [nM]	EC50 [5] [nM]	ERK1 Mass Mod (%) [1]	IC50 [2, 6] [nM]	EC50 [3] [nM]
CC(=O)N1CCC[C@H](Nc2ncc(C(F)(F)F)c(Nc3ccccc3NC(=O)CCCl)n2)C1 [Compound I-21, (S)—N-(2-((2-((1-Acetylpiperidin-3-yl)amino)-5-(trifluoromethyl)pyrimidin-4-yl)amino)phenyl)-3-chloropropanamide]	–	–	–	G (a mass modification ≦30%)	101 to 500	> 1000
C=C(C)S(=O)(=O)Nc1cc(C)ccc1Nc1nc(Nc2cc(C(C)=O)ccc2C)ncc1C(F)(F)F [Compound I-98, N-(2-((2-((5-acetyl-2-methylphenyl)amino)-5-(trifluoromethyl)pyrimidin-4-yl)amino)-5-methylphenyl)prop-1-ene-2-sulfonamide]	–	–	–	G (a mass modification ≦30%)	101 to 500	> 1000
C=CC(=O)Nc1ccccc1Nc1nc(N[C@@H]2CCC[C@H](C(N)=O)C2)ncc1C(F)(F)F [Compound I-7, (1S,3R)-3-((4-((2-acrylamidophenyl)amino)-5-(trifluoromethyl)pyrimidin-2-yl)amino)cyclohexanecarboxamide]	501 to 999	–	–	E (a mass modification of ≧70%)	–	501 to 999
C=CC(=O)Nc1ccccc1Nc1nc(Nc2cc(C(=O)NOCCO)ccc2C)ncc1C(F)(F)F [Compound I-73, 3-((4-((2-Acrylamidophenyl)amino)-5-(trifluoromethyl)pyrimidin-2-yl)amino)-N-(2-hydroxyethoxy)-4-methylbenzamide]	101 to 500	–	–	E (a mass modification of ≧70%)	101 to 500	101 to 500
C=CC(=O)N[C@@H]1CCCC[C@H]1Nc1nc(N[C@H]2CCCN(C(=O)CO)C2)ncc1C(F)(F)F [Compound I-32, N-((1R,2R)-2-((2-(((S)-1-(2-hydroxyacetyl)piperidin-3-yl)amino)-5-(trifluoromethyl)pyrimidin-4-yl)amino)cyclohexyl)acrylamide]	–	–	–	F (a mass modification of 31-69%)	101 to 500	> 1000
C/C=C/C(=O)Nc1cc(F)ccc1Nc1nc(N[C@@H]2CCC[C@H](C(N)=O)C2)ncc1Cl (racemic) [Compound I-113, Rac-cis-(E)-3-((4-((2-(but-2-enamido)-4-fluorophenyl)amino)-5-chloropyrimidin-2-yl)amino)cyclohexanecarboxamide]	–	–	–	F (key: E: a mass modification of ≧70%; F: a mass modification of 31-69%; G: a mass modification ≦30%)	> 1000	> 1000
C=CC(=O)Nc1ccccc1Nc1nc(Nc2cc(C(N)=O)ccc2C(F)(F)F)ncc1Cl [Compound I-220, 3-((4-((2-acrylamidophenyl)amino)-5-chloropyrimidin-2-yl)amino)-4-(trifluoromethyl)benzamide]	–	–	–	E (a mass modification of ≧70%)	101 to 500	501 to 999
C=C(C)S(=O)(=O)Nc1cc(F)ccc1Nc1nc(Nc2cc(C(C)=O)ccc2C)ncc1Cl [Compound I-243, N-(2-((2-((5-acetyl-2-methylphenyl)amino)-5-chloropyrimidin-4-yl)amino)-5-fluorophenyl)prop-1-ene-2-sulfonamide]	–	–	–	G (a mass modification ≦30%)	> 1000	> 1000
C=CC(=O)Nc1ccccc1Nc1nc(N[C@H]2CCC[C@@H](CO)C2)ncc1Cl (racemic) [Compound I-121, Rac-cis-N-(2-((5-chloro-2-((3-(hydroxymethyl)cyclohexyl)amino)pyrimidin-4-yl)amino)phenyl)acrylamide]	< 100	–	–	E (key: E: a mass modification of ≧70%; F: a mass modification of 31-69%; G: a mass modification ≦30%)	< 100	< 100

Second part, led by results:

GI50 [4] [nM]	IC50 ([2]; ATP at KM, WT) [nM]	EC50 [5] [nM]	Structure (SMILES)	ERK1 Mass Mod (%) [1]	IC50 [2, 6] [nM]	EC50 [3] [nM]
> 1000	–	–	C=CC(=O)Nc1ccccc1Nc1nc(N[C@H]2CCCN(C(=O)CCCC(=O)NCCCOCCOCCOCCCNC(=O)CCCC[C@@H]3SC[C@@H]4NC(=O)N[C@@H]43)C2)ncc1Cl [Compound I-303, 5-((S)-3-((4-((2-acrylamidophenyl)amino)-5-chloropyrimidin-2-yl)amino)piperidin-1-yl)-5-oxo-N-(15-oxo-19-((3aS,4S,6aR)-2-oxohexahydro-1H-thieno[3,4-d]imidazol-4-yl)-4,7,10-trioxa-14-azanonadecyl)pentanamide]	G (a mass modification ≦30%)	–	> 1000
–	> 1000	> 1000	C=CC(=O)Nc1cc(CN2CCN(C)CC2)ccc1Nc1nc(Nc2cc(OC)ncc2C)ncc1C(F)(F)F [Compound I-380, N-(2-((2-((2-methoxy-5-methylpyridin-4-yl)amino)-5-(trifluoromethyl)pyrimidin-4-yl)amino)-5-((4-methylpiperazin-1-yl)methyl)phenyl)acrylamide]	E (a mass modification of ≧70%)	–	501 to 999
> 1000	–	–	C=CC(=O)Nc1cc(OC)ccc1Nc1nc(Nc2ccc(N3CCC[C@@H]3C(N)=O)cc2C#N)ncc1Cl [Compound I-180, (R)-1-(4-((4-((2-acrylamido-4-methoxyphenyl)amino)-5-chloropyrimidin-2-yl)amino)-3-cyanophenyl)pyrrolidine-2-carboxamide]	E (a mass modification of ≧70%)	501 to 999	501 to 999
